Measured values from patent publication US20240024295A1, “COMPOSITIONS AND METHODS FOR INHIBITING HAIR GROWTH” (priority 2020, published 2024).

System: C3H mice
Assay: Telogen Conversion Assay
Assay type: in vivo
Details: for effect on hair growth (average grade): average grade of 7 mice after 23 days, example written in present tense; for hair regrowth as compared to the control group (placebo): applied daily to mice, at the appropriate dose-level, week 3 and week 4, FIGURE; for Average Grades, 23 Days: average of 7 mice after 23 days
Protocol: FP receptor antagonists are tested for their potential to grow hair using the Telogen Conversion Assay. The Telogen Conversion Assay measures the potential of a FP receptor antagonist to inhibit in mice the conversion of hair in the resting stage of the hair growth cycle (“telogen”), to the growth stage of the hair growth cycle (“anagen”), and to assess the rate of anagen growth.
Without intending to be limited by theory, there are three principal phases of the hair growth cycle: anagen, catagen, and telogen. It is believed that there is a long telogen period in C3H mice (Harian Sprague Dawley, Inc., Indianapolis, IN) from approximately 40 days of age until about 75 days of age, when hair growth is synchronized. It is believed that after 75 days of age, hair growth is no longer synchronized. Wherein about 40 day-old mice with dark fur (brown or black) are used in hair growth experiments, melanogenesis occurs along with hair (fur) growth wherein the topical application of hair growth inducers is evaluated. The Telogen Conversion Assay herein is used to screen FP receptor antagonists for potential hair growth by measuring melanogenesis and/or inhibition of expected hair growth.
Three groups of 44 day-old C3H mice are used: a vehicle control group, a positive control group, and a test FP receptor antagonist group, wherein the test FP receptor antagonist group is administered a FP receptor antagonist. The length of the assay is typically 24 days with 15 treatment days (wherein the treatment days occur Mondays through Fridays). Day 1 is the first day of treatment. Typical dosage concentrations are set forth in Table 1, however the skilled artisan will readily understand that such concentrations may be modified.
The mice are treated topically Monday through Friday on their lower back (base of tail to the lower rib). A pipette and tip are used to deliver 400 μL to each mouse's back. The 400 μL application is applied slowly while moving hair on the mouse to allow the application to reach the skin.
While each treatment is being applied to the mouse topically, a visual grade of from 0 to 4 will be given to the skin color in the application area of each animal. As a mouse converts from telogen to anagen, its skin color will become less pink and more bluish-black.

[1] = visual skin/hair grade 0 (pink skin) to 4 (full anagen), topical

| Compound | effect on hair growth (average grade) | hair regrowth as compared to the control group (placebo) | Average Grades, 23 Days [1] | Average Grades, 25 Days (visual skin/hair grade 0 (pink skin) to 4 (full anagen), average of 7 mice after 25 days, topical) | Average Grades, 26 Days (visual skin/hair grade 0 (pink skin) to 4 (full anagen), average of 7 mice after 26 days, topical) |
| --- | --- | --- | --- | --- | --- |
| CC(C)OC(=O)CCC/C=C\CC1C(/C=C/[C@H](O)C2Cc3ccccc3C2)[C@@H](F)C[C@@H]1O (stereo partly drawn) [Example 4] | significantly reduces hair growth | – | – | – | – |
| O=C(N[C@H](c1ccccc1)c1ccccn1)[C@@H]1SCCN1S(=O)(=O)c1ccc(-c2ccccc2)cc1 [Example 3] | significantly reduces hair growth | inhibited hair regrowth | – | – | – |
| COC(=O)CCC/C=C\CC1C(/C=C/[C@H](O)C2Cc3ccccc3C2)[C@@H](F)C[C@@H]1O (stereo partly drawn) [Example 2] | – | inhibited hair regrowth | 0.1 | – | – |
| Ile-Leu-Gly-His-(citrulline)-Asp-Tyr-Lys [Example 5] | significantly reduces hair growth | – | – | – | – |
| O=C(O)CCC/C=C\CC1C(/C=C/[C@H](O)C2Cc3ccccc3C2)[C@@H](F)C[C@@H]1O (stereo partly drawn) [Example 1] | – | – | 0.4 | 0.1 | 0.7 |
